{"source": "paper PMC8408929", "about": "“Influence of osmolality on gastrointestinal fluid volume and drug absorption: potential impact on oral salt supplementation” (Journal of Pharmaceutical Health Care and Sciences, 2021)", "key": {"intestine": {"system": "intestine", "set-up": "method as in PMID 28450238", "conditions": "administered in purified water vs isosmotic solution; cited from earlier work"}, "[1]": {"set-up": "method as in not given", "conditions": "low-permeability drugs; ref not given; cited from earlier work"}, "[2]": {"system": "rat intestine (jejunum, ileum and colon)", "test": "in situ rat intestinal closed loop method", "conditions": "30 min", "description": "The in situ rat intestinal closed loop method was carried out as described previously. Male Wistar rats (7–8 weeks old; 250 ± 20 g body weight) were fasted overnight and anesthetized by intraperitoneal injection of a triple anesthetic combination (medetomidine, midazolam and butorphanol). The abdominal cavity was opened and an intestinal loop (jejunum, 10 cm; ileum, 10 cm; colon, 7 cm) was made by cannulation into both ends of the jejunum, ileum and colon with silicone tubing (i.d., 3 mm). The intestinal contents were washed out through the cannulas with saline. […] One mL of test compound solution (10 μM) was introduced into the intestinal loop and both ends of the loop were ligated. At the designated times (30 min), test compound solution in the loop was collected by flushing with air (for measuring the luminal concentration of test compound, Cout), and then made up to 10 mL with buffer solution (for measuring the amount of test compound, Xout). The volume of luminal water (mL) in each segment of intestine was calculated using the following equation: 1 Vwater=Xout/Cout where Vwater (mL) is the water volume in each segment of intestine, Cout is the luminal concentration of test compound (μM), and Xout is the amount of test compound (μmol). The fraction absorbed of test compound was calculated from the remaining amount of test compound in each intestinal loop. Final results were normalized to the surface area calculated from the radius and length of each segment of intestine. The radii of the small and large intestines reported by Fagerholm et al. were used (0.178 cm and 0.252 cm, respectively).\nConcentrations of FD-4 were measured with a microplate fluorescence reader (VarioskanTM Flash 2.4; Thermo Fisher Scientific Inc., Kanagawa, Japan) at excitation/emission wavelengths of 492/515 nm.\nAn Agilent Eclitse plus (C18, 50 × 2.1 mm, 5 μm) was used as the analytical column. […] Analyst software version 1.4.2 (AB SCIEX) was used for data manipulation."}}}
{"compound": "Cc1cc(=O)n(-c2ccccc2)n1C", "note": "[antipyrine]", "values": [{"measurement": "fraction absorbed, purified water compared with isosmotic solution", "setting": "intestine", "result": "no significant difference"}]}
{"compound": "CC(C)NCC(O)COc1ccc(CC(N)=O)cc1", "note": "(stereo not shown) [atenolol]", "values": [{"measurement": "fraction absorbed, purified water compared with isosmotic solution", "setting": "intestine", "result": "significantly greater"}]}
{"compound": "NS(=O)(=O)c1cc(C(=O)O)c(NCc2ccco2)cc1Cl", "note": "[furosemide]", "values": [{"measurement": "BCS Class", "setting": "[1]", "result": "Class IV"}]}
{"compound": "Cc1ccccc1C(=O)Nc1ccc(C(=O)N2CCCC(O)c3cc(Cl)ccc32)c(C)c1", "note": "(stereo not shown) [tolvaptan]", "values": [{"measurement": "BCS Class", "setting": "[1]", "result": "Class IV"}]}
{"compound": "fluorescein isothiocyanate-dextran 4000 [FD-4]", "values": [{"measurement": "luminal concentration", "setting": "[2]; colon, 10 μM dosed in hyperosmotic solution (10% NaCl)", "result": "6.25 ± 0.15", "unit": "µM"}, {"measurement": "luminal concentration", "setting": "[2]; colon, 10 μM dosed in purified water", "result": "27.4 ± 2.0", "unit": "µM"}, {"measurement": "luminal concentration", "setting": "[2]; ileum, 10 μM dosed in hyperosmotic solution (10% NaCl)", "result": "6.47 ± 0.68", "unit": "µM"}, {"measurement": "luminal concentration", "setting": "[2]; ileum, 10 μM dosed in purified water", "result": "13.2 ± 0.7", "unit": "µM"}, {"measurement": "luminal concentration", "setting": "[2]; jejunum, 10 μM dosed in hyperosmotic solution (10% NaCl)", "result": "5.30 ± 0.31", "unit": "µM"}, {"measurement": "luminal concentration", "setting": "[2]; jejunum, 10 μM dosed in purified water", "result": "13.7 ± 0.8", "unit": "µM"}]}
